Tests used:
[1] = Measurement of absorbance retention (A1 in PBS / A0 in dimethyl sulfoxide); format: physicochemical; conditions: A1/A0 at maximum-absorption wavelength; 2 μM in PBS vs 2 μM in dimethyl sulfoxide, within 5 minutes
Method: The absorbance retention calculated by Formula (I) is calculated as follows.
A colorant solution I is prepared by dissolving the colorant for fluorescent labeling in a soluble organic solvent so that the concentration is 2 μM. The absorption spectrum of the colorant solution I is measured using a spectrophotometer (U-4100, commercially available from Hitachi High-Tech Corporation), and the absorbance A0 at a maximum-absorption wavelength is determined.
In addition, a colorant dispersion II is prepared by dissolving the colorant for fluorescent labeling in a soluble organic solvent so that the concentration is 20 μM, and this is additionally diluted 10-fold with PBS so that the concentration is 2 μM. The absorption spectrum of the colorant dispersion II is measured using a spectrophotometer (U-4100, commercially available from Hitachi High-Tech Corporation), and the absorbance A1 at a maximum-absorption wavelength is determined. It is preferable to measure the absorbance under conditions at 25° C. In addition, it is desirable to measure the absorbance within 5 minutes after the […] is prepared. The colorant dispersion II can be obtained, for example, by diluting a colorant solution 10-fold with PBS at 25° C. and mixing by pipetting 10 times or more.
After each colorant solution was diluted 10-fold with dimethyl sulfoxide to obtain a colorant solution I with a colorant concentration of 2 μM, the absorption spectrum was measured using a spectrophotometer (U-4100, commercially available from Hitachi High-Tech Corporation), and the absorbance A0 at a maximum-absorption wavelength was obtained. In addition, after each colorant solution was diluted 10-fold with phosphate buffered saline (PBS) to obtain a colorant dispersion II with a colorant concentration of 2 μM, the absorption spectrum was measured immediately (within 5 minutes) using the spectrophotometer, and the absorbance A1 at a maximum-absorption wavelength was obtained. Using the obtained values of A0 and A1, the absorbance retention was calculated from Formula (I), and determined based on the following criteria.
• 4: absorbance retention 0.8 or more • 3: absorbance retention less than 0.8 to 0.5 or more • 2: absorbance retention less than 0.5 to 0.3 or more • 1: absorbance retention less than 0.3

[2] = Measurement of average particle size (Z average, dynamic light scattering) of colorant dispersed component in PBS dispersion; format: physicochemical; conditions: 20 μM DMSO colorant solution diluted 10-fold with PBS to 2 μM, measured within 5 minutes
Method: The average particle size of the colorant dispersed component contained in the colorant dispersion I can be measured as follows.
A colorant solution is obtained by dissolving a colorant for fluorescent labeling in an organic solvent that can dissolve the colorant for fluorescent labeling so that the concentration is 20 μM. The colorant solution is diluted 10-fold with PBS and mixed to prepare a colorant dispersion I with a concentration of 2 μM.
Here, the method of mixing the colorant solution and the PBS is not particularly limited, and for example, a method of adding a colorant solution to PBS is preferable. Mixing may be performed separately in a plurality of steps. The method of mixing a colorant solution and PBS is not particularly limited, and a method that can quickly achieve a uniform mixing state is desirable. As an example of the mixing method, mixing can be performed by well-known methods such as stirring with a stirrer, pipetting with a pipette, and using a Vortex mixer. The colorant dispersion I can be obtained, for example, by diluting a colorant solution 10-fold with PBS at 25° C. and mixing by pipetting 10 times or more.
The particle size distribution of the colorant dispersion I obtained as above is measured using a particle size distribution measuring device (Zetasizer Nano ZSP, commercially available from Spectris). It is preferable to measure the average particle size under conditions at 25° C. It is desirable to measure the average particle size within 5 minutes after the colorant dispersion I is prepared.
As the value of the average particle size, values such as a Z average particle size, a number average particle size, a volume average particle size, and an area average particle size can be used. In the present invention, the Z average particle size measured by a dynamic light scattering method is defined as the average particle size of the colorant dispersed component contained in the colorant dispersion I.
After each colorant solution was diluted 10-fold with phosphate buffered saline (PBS) to obtain a colorant dispersion I with a colorant concentration of 2 μM, measurement was performed immediately (within 5 minutes) using a particle size distribution measuring device (Zetasizer Nano ZSP, commercially available from Spectris). The Z average particle size of the colorant fine particles (the colorant dispersed component in the colorant dispersion I) of each colorant for fluorescent labeling was determined based on the following criteria. The determination results are shown in “average particle size” in Table 8.
• 4: Z average particle size 5 nm or more to less than 100 nm • 3: Z average particle size 100 nm or more to less than 300 nm • 2: Z average particle size 300 nm or more to 500 nm or less • 1: Z average particle size more than 500 nm

[3] = test system: Hela cells; test: Evaluation of cell staining: fluorescence intensity by plate reader; format: cell-based; conditions: 1 μM colorant, 1 hour, washed, plate reader 780 to 800 nm
Method: Each colorant solution was diluted 20-fold with an Eagle's minimum essential medium (commercially available from FUJIFILM Wako Pure Chemical Corporation) to prepare a fluorescent labeling agent containing 1 μM of the colorant for fluorescent labeling.
Hela cells were seeded in a 96-well plate (1×10^4 cells/well), and cultured in an incubator (37° C., 5% CO2-containing Air, humidified environment) for 48 hours using an Eagle's minimum essential medium (commercially available from FUJIFILM Wako Pure Chemical Corporation) containing 10% Fetal Bovine Serum (FBS) and 1% penicillin-streptomycin. Then, the medium was removed, and the fluorescent labeling agent prepared above was added to each well. The sample was left in an incubator for 1 hour, and then washed with the Eagle's minimum essential medium (commercially available from FUJIFILM Wako Pure Chemical Corporation). Using a plate reader (SPARK, commercially available from Tecan Group Ltd.), the fluorescence intensity was measured in a range of 780 to 800 nm, and evaluated based on the following criteria. […] The evaluation results are shown in “fluorescence intensity during cell staining” in Table 8.
• 4: fluorescence intensity measurement value 2,000 or more • 3: fluorescence intensity measurement value less than 2,000 to 1,000 or more • 2: fluorescence intensity measurement value less than 1,000 to 500 or more • 1: fluorescence intensity measurement value less than 500

| Molecule | Absorbance retention [1] | Average particle size [2] | Fluorescence intensity during cell staining [3] |
| --- | --- | --- | --- |
| O=C(O)CCOc1ccc(-c2cc3c(o2)=CC2=C(C(F)(F)F)c4cc5oc(-c6ccc(OCCC(=O)O)cc6)cc5n4[B-](F)(F)[N+]=32)cc1 [Colorant for fluorescent labeling 23] | 4 (absorbance retention 0.8 or more) | 3 (Z average particle size 100 nm or more to less than 300 nm) | 4 (fluorescence intensity measurement value 2,000 or more) |
| O=P(O)(O)CCOc1ccc(-c2cc3c(o2)=CC2=C(C(F)(F)F)c4cc5oc(-c6ccc(OCCP(=O)(O)O)cc6)cc5n4[B-](F)(F)[N+]=32)cc1 [Colorant for fluorescent labeling 24] | 4 (absorbance retention 0.8 or more) | 3 (Z average particle size 100 nm or more to less than 300 nm) | 4 (fluorescence intensity measurement value 2,000 or more) |
| CCCCCCCCCCCCCCCCCCN1/C(=C/C=C/C=C/C=C/C2=[N+](CCCCCCCCCCCCCCCCCC)c3ccccc3C2(C)C)C(C)(C)c2ccccc21.[I-] [Comparative compound 6] | 2 (absorbance retention less than 0.5 to 0.3 or more) | 2 (Z average particle size 300 nm or more to 500 nm or less) | 1 (fluorescence intensity measurement value less than 500) |
| Aluminum 1, 8, 15, 22-tetrakis(phenylthio)-29H, 31H-phthalocyanine chloride [Comparative compound 3] | 1 (absorbance retention less than 0.3) | 1 (Z average particle size more than 500 nm) | 1 (fluorescence intensity measurement value less than 500) |

Source: patent US20240376378A1, “COLORANT FOR FLUORESCENT LABELING AND FLUORESCENT LABELING AGENT” (artience Co., Ltd., priority 2021, published 2024)
